From patent US9556179B2 (BRISTOL-MYERS SQUIBB COMPANY, priority 2012, dated 2017)

Columns and labels:
CK1δ = CK1δ (Homo sapiens (Human), UniProt P48730); test: CK1δ kinase assay (Caliper LABCHIP electrophoretic separation of fluoresceinated peptide substrate and product); type: biochemical; conditions: 200 pM enzyme, 50 μM ATP, 22 hours at room temperature
Protocol: (§1) CK1ε and CK1δ Kinase Assays
(§2) The kinase assay was performed in V-bottom 384-well plates. […] The reaction was incubated at room temperature for 22 hours and terminated by adding 45 μl of 35 mM EDTA to each sample. The reaction mixture was analyzed on the Caliper LABCHIP®3000 (Caliper, Hopkinton, Mass.) by electrophoretic separation of the unphosphorylated substrate and phosphorylated product. […] Compounds were dissolved at 10 mM in dimethylsulfoxide (DMSO) and evaluated at eleven concentrations. IC50 values were derived by non-linear regression analysis.

CK1ε = CK1ε (Homo sapiens (Human), UniProt P49674); test: CK1ε kinase assay (Caliper LABCHIP electrophoretic separation of fluoresceinated peptide substrate and product); type: biochemical; conditions: 200 pM enzyme, 50 μM ATP, 22 hours at room temperature
Protocol: as §1, §2

Sequence of CK1δ (P48730 whole entry): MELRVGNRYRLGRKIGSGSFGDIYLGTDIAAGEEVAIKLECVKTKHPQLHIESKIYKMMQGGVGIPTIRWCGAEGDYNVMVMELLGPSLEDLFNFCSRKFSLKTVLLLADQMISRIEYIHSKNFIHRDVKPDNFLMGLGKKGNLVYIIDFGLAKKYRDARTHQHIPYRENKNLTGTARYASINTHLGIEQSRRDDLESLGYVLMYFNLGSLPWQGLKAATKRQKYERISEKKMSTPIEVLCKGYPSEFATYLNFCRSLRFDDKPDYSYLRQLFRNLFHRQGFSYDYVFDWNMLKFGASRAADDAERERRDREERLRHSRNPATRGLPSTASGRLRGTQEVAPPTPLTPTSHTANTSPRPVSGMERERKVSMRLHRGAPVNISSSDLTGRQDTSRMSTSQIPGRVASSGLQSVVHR
Sequence of CK1ε (P49674 whole entry): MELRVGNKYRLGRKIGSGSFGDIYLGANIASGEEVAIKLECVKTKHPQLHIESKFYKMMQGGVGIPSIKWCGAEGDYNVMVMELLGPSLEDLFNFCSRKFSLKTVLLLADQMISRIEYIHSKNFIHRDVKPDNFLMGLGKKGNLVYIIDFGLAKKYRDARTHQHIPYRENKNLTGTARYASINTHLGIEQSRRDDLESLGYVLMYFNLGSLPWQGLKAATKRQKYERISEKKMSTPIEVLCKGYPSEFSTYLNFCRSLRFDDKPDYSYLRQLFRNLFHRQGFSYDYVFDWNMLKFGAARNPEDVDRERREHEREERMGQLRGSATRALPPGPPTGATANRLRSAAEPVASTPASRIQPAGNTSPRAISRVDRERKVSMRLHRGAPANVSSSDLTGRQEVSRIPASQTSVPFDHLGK

| SMILES | IC50 (CK1δ) [nM] | IC50 (CK1ε) [nM] |
| --- | --- | --- |
| O=C(Nc1cn2nc(-c3c(-c4ccc(F)cc4)ncn3C3CCNCC3)ccc2n1)c1ccncc1 [Compound 1, N-(6-(4-(4-fluorophenyl)-1-(piperidin-4-yl)-1H-imidazol-5-yl)imidazo[1,2-b]pyridazin-2-yl)isonicotinamide] | 0.064 | – |
| O=C(Nc1cn2nc(-c3c(-c4ccc(F)cc4)ncn3C3CCN(C[C@@H](O)C(F)(F)F)CC3)ccc2n1)c1ccncc1 [Compound 7, (R)—N-(6-(4-(4-fluorophenyl)-1-(1-(3,3,3-trifluoro-2-hydroxypropyl)piperidin-4-yl)-1H-imidazol-5-yl)imidazo[1,2-b]pyridazin-2-yl)isonicotinamide] | – | 1.77 |
| O=C(Nc1cn2nc(-c3c(-c4ccc(F)cc4)ncn3C3CCN(CC4CCOCC4)CC3)ccc2n1)c1ccnc(F)c1 [Compound 19] | 0.611 | – |
| CN1CCC(CN2CCC(n3cnc(-c4ccc(F)cc4)c3-c3ccc4nc(NC(=O)c5ccnc(F)c5)cn4n3)CC2)CC1 [Compound 25, 2-fluoro-N-(6-(4-(4-fluorophenyl)-1-(1-((1-methylpiperidin-4-yl)methyl)piperidin-4-yl)-1H-imidazol-5-yl)imidazo[1,2-6]pyridazin-2-yl)isonicotinamide] | 0.532 | – |
| O=C(Nc1cn2nc(-c3c(-c4ccc(F)cc4)ncn3C3CCN(Cc4ncco4)CC3)ccc2n1)c1ccnc(F)c1 [Compound 29, 2-fluoro-N-(6-(4-(4-fluorophenyl)-1-(1-(oxazol-2-ylmethyl)piperidin-4-yl)-1H-imidazol-5-yl)imidazo[1,2-6]pyridazin-2-yl)isonicotinamide] | 0.226 | – |
| O=C(Nc1cn2nc(-c3c(-c4ccc(F)cc4)ncn3C3CCN(Cc4ccc(O)nc4)CC3)ccc2n1)c1ccnc(F)c1 [Compound 30, 2-fluoro-N-(6-(4-(4-fluorophenyl)-1-(1-((6-hydroxypyridin-3-yl)methyl)piperidin-4-yl)-1H-imidazol-5-yl)imidazo[1,2-b]pyridazin-2-yl)isonicotinamide] | – | 2 |
| O=C(Nc1cn2nc(-c3c(-c4ccc(F)cc4)ncn3C3CCN(C(=O)c4cocn4)CC3)ccc2n1)c1ccnc(F)c1 [Compound 43, 2-fluoro-N-(6-(4-(4-fluorophenyl)-1-(1-(oxazole-4-carbonyl)piperidin-4-yl)-1H-imidazol-5-yl)imidazo[1,2-6]pyridazin-2-yl)isonicotinamide] | – | 0.952 |
| Cc1nocc1C(=O)N1CCC(n2cnc(-c3ccc(F)cc3)c2-c2ccc3nc(NC(=O)c4ccnc(F)c4)cn3n2)CC1 [Compound 63, 2-fluoro-N-(6-(4-(4-fluorophenyl)-1-(1-(3-methylisoxazole-4-carbonyl)piperidm-4-yl)-1H-imidazol-5-yl)imidazo[1,2-6]pyridazin-2-yl)isonicotinamide] | – | 0.391 |
| O=C(Nc1cn2nc(-c3c(-c4ccc(F)cc4)ncn3C3CCN(C(=O)C4CC(F)(F)C4)CC3)ccc2n1)c1ccnc(F)c1 [Compound 67, N-(6-(1-(1-(3,3-difluorocyclobutanecarbonyl)piperidin-4-yl)-4-(4-fluorophenyl)-1H-imidazol-5-yl)imidazo[1,2-b]pyridazin-2-yl)-2-fluoroisonicotinamide] | 0.116 | – |
| O=C(Nc1cn2nc(-c3c(-c4ccc(F)cc4)ncn3C3CCN(C(=O)OCCC(F)(F)F)CC3)ccc2n1)c1ccnc(F)c1 [Compound 83, 3,3,3-trifluoropropyl 4-(5-(2-(2-fluoroisonicotinamido)imidazo[1,2-b]pyridazin-6-yl)-4-(4-fluorophenyl)-1H-imidazol-1-yl)piperidine-1-carboxylate] | – | 0.461 |
| O=C(Nc1cn2nc(-c3c(-c4ccc(F)cc4)ncn3C3CCN(C(=O)CC(F)(F)F)CC3)ccc2n1)c1cc(F)nc(F)c1 [Compound 94, 2,6-difluoro-N-(6-(4-(4-fluorophenyl)-1-(1-(3,3,3-trifluoropropanoyl)piperidin-4-yl)-1H-imidazol-5-yl)imidazo[1,2-b]pyridazin-2-yl)isonicotinamide] | – | 1.27 |
| Cc1nc(-c2cccnc2)sc1C(=O)Nc1cn2nc(-c3c(-c4ccc(F)cc4)ncn3C3CCNCC3)ccc2n1 [Compound 95, N-(6-(4-(4-fluorophenyl)-1-(piperidin-4-yl)-1H-imidazol-5-yl)imidazo[1,2-b]pyridazin-2-yl)-4-methyl-2-(pyridin-3-yl)thiazole-5-carboxamide] | – | 0.17 |
| Cc1nc(-c2cccnc2)sc1C(=O)Nc1cn2nc(-c3c(-c4ccc(F)cc4)ncn3C3CCN(C)CC3)ccc2n1 [Compound 96] | – | 0.966 |
| Cc1nc(-c2ccncc2)sc1C(=O)Nc1cn2nc(-c3c(-c4ccc(F)cc4)ncn3C3CCN(CCO)CC3)ccc2n1 [Compound 105, N-(6-(4-(4-fluorophenyl)-1-(1-(2-hydroxyethyl)piperidin-4-yl)-1H-imidazol-5-yl)imidazo[1,2-b]pyridazin-2-yl)-4-methyl-2-(pyridin-4-yl) thiazole-5-carboxamide] | – | 0.096 |
| CC(C)(C)OCCn1cnc(-c2ccc(F)cc2)c1-c1ccc2nc(NC(=O)c3ccnc(F)c3)cn2n1 [Compound 260, N-(6-(1-(2-tert-butoxyethyl)-4-(4-fluorophenyl)-1H-imidazol-5-yl)imidazo[1,2-b]pyridazin-2-yl)-2-fluoroisonicotinamide] | – | 5.53 |

Second part, the compound after the results:

| IC50 (CK1δ) [nM] | IC50 (CK1ε) [nM] | SMILES |
| --- | --- | --- |
| – | 1.03 | O=C(Nc1cn2nc(-c3c(-c4ccc(F)cc4)ncn3C3CCNCC3)ccc2n1)c1ccnc2ccccc12 [Compound 109, N-(6-(4-(4-fluorophenyl)-1-(piperidin-4-yl)-1H-imidazol-5-yl)imidazo[1,2-b]pyridazin-2-yl)quinoline-4-carboxamide] |
| – | 0.564 | O=C(Nc1cn2nc(-c3c(-c4ccc(F)cc4)ncn3C3CCN(CCO)CC3)ccc2n1)c1ccnc2ccccc12 [Compound 111, N-(6-(4-(4-fluorophenyl)-1-(1-(2-hydroxyethyl)piperidin-4-yl)-1H-imidazol-5-yl)imidazo[1,2-b]pyridazin-2-yl)quinoline-4-carboxamide] |
| – | 3.07 | Cc1nc(-c2ccncc2)sc1C(=O)Nc1cn2nc(-c3c(-c4ccc(F)cc4)ncn3C3CN(CCO)C3)ccc2n1 [Compound 152, N-(6-(4-(4-fluorophenyl)-1-(1-(2-hydroxyethyl)azetidin-3-yl)-1H-imidazol-5-yl)imidazo[1,2-b]pyridazin-2-yl)-4-methyl-2-(pyridin-4-yl)thiazole-5-carboxamide] |
| – | 2.82 | O=C(Nc1cn2nc(-c3c(-c4ccc(F)cc4)ncn3CC(O)CO)ccc2n1)c1ccnc(F)c1 (centres unmarked) [Compound 235, N-(6-(1-(2,3-dihydroxypropyl)-4-(4-fluorophenyl)-1H-imidazol-5-yl)imidazo[1,2-b]pyridazin-2-yl)-2-fluoroisonicotinamide, dimethyl-formamide] |
| – | 5.18 | O=C(Nc1cn2nc(-c3c(-c4ccc(F)cc4)ncn3C3COC3)ccc2n1)c1ccnc(F)c1 [Compound 239, 2-fluoro-N-(6-(4-(4-fluorophenyl)-1-(oxetan-3-yl)-1H-imidazol-5-yl)imidazo[1,2-b]pyridazin-2-yl)iso-nicotinamide] |
| – | 5.29 | Cc1nc(-c2ccc(F)cc2)c(-c2ccc3nc(NC(=O)c4ccncc4)cn3n2)n1C [Compound 301, N-(6-(4-(4-Fluorophenyl)-1,2-dimethyl-1H-imidazol-5-yl)imidazo[1,2-b]pyridazin-2-yl)isonicotinamide] |
| – | 2.68 | Cc1nc(-c2ccc(F)cc2)c(-c2ccc3nc(NC(=O)c4ccnc(N)c4)cn3n2)n1C [Compound 323, 2-amino-N-(6-(4-(4-fluoro-phenyl)-1,2-dimethyl-1H-imidazol-5-yl)imidazo[1,2-b]pyridazin-2-yl)isonicotin-amide] |
| – | 6.89 | Cc1cc(C(=O)Nc2cn3nc(-c4c(-c5ccc(F)cc5)nc(C)n4C)ccc3n2)[nH]n1 [Compound 349, N-(6-(4-(4-fluorophenyl)-1,2-dimethyl-1H-imidazol-5-yl)imidazo[1,2-b]pyridazin-2-yl)-5-methyl-1H-pyrazole-3-carboxamide] |
| – | 2.32 | Cc1nc(-c2ccc(F)cc2)c(-c2ccc3nc(NC(=O)c4cncnc4)cn3n2)n1C [Compound 350, N-(6-(4-(4-fluorophenyl)-1,2-dimethyl-1H-imidazol-5-yl)imidazo[1,2-b]pyridazin-2-yl)-5-pyrimidinecarboxamide] |
| – | 2.01 | Cc1nnsc1C(=O)Nc1cn2nc(-c3c(-c4ccc(F)cc4)nc(C)n3C)ccc2n1 [Compound 351, N-(6-(4-(4-fluorophenyl)-1,2-dimethyl-1H-imidazol-5-yl)imidazo[1,2-b]pyridazin-2-yl)-4-methyl-1,2,3-thiadiazole-5-carboxamide] |
| – | 5.38 | Cc1nc(-c2ccc(F)cc2)c(-c2ccc3nc(NC(=O)c4cncn4C)cn3n2)n1C [Compound 360, N-(6-(4-(4-fluorophenyl)-1,2-dimethyl-1H-imidazol-5-yl)imidazo[1,2-b]pyridazin-2-yl)-1-methyl-1H-imidazole-5-carboxamide] |
| – | 48.4 | Cc1nc(-c2ccc(F)cc2)c(-c2ccc3nc(NC(=O)c4nc[nH]n4)cn3n2)n1C [Compound 368, N-(6-(4-(4-fluorophenyl)-1,2-dimethyl-1H-imidazol-5-yl)imidazo[1,2-b]pyridazin-2-yl)-1H-1,2,4-triazole-3-carboxamide] |
| – | 11.9 | Cc1nc(-c2ccc(F)cc2)c(-c2ccc3nc(NC(=O)c4ccno4)cn3n2)n1C [Compound 387, N-(6-(4-(4-fluorophenyl)-1,2-dimethyl-1H-imidazol-5-yl)imidazo[1,2-b]pyridazin-2-yl)isoxazole-5-carboxamide] |
| – | 34.2 | Cc1cc(C(=O)Nc2cn3nc(-c4c(-c5ccc(F)cc5)nc(C)n4C)ccc3n2)n[nH]1 [Compound 401, N-(6-(4-(4-fluorophenyl)-1,2-dimethyl-1H-imidazol-5-yl)imidazo[1,2-b]pyridazin-2-yl)-5-methyl-1H-pyrazole-3-carboxamide] |
